Consider 1 compound from patent publication EP0326196A2, “Aqueous pharmaceutical preparation” (AKZO N.V., priority 1988, dated 1989).

In brackets after ≈: the same amount, converted by molar mass. Where two headings read alike, the source gives them in different places.

A short description of series [1]: Solubility study of the Steroid in water / aqueous cyclodextrin solutions (phase-solubility, UV/VIS). In kind it is physicochemical. The method, then:
The solubility studies were performed according to the method described below which is well known in the litrature. Excess amounts of the Steroid were added to aqueous solutions of 2,6-dimethyl-β-cyclodextrin. These suspensions were shaken at room temperature during 5 days followed by an equilibration period of 3 days at room temperature. Then an aliquot was centrifuged and the supernatant was filtered through a 0,45 µm membrane filter (Millipore: HV4, Millex). The samples were analysed with the Perkin Elmer Lambda 5 UV/VIS spectrophotometer. The absorbance was read and compared with a blanc and standard calibration curve. […] After calculation of the amount of Steroid dissolved, a phase-solubility diagram was constructed by plotting the dissolved amounts of Steroid as a function of the concentration of 2,6-dimethyl-β-cyclodextrin (see Graph).
For comparative purposes the unexpected increase of solubility of the Steroid in water using 2,6-dimethyl-β-cyclodextrin, is compared with other more common cyclodextrins.

Series [2] in a line: Systemic effect after local administration. The class given is in vivo. The settings on record: administered locally.
A short description of series [3]: Intra ocular pressure on application to the eyes. In kind it is in vivo. The settings on record: applied to the eyes; contrary to other corticosteroids.

As for `CCC(=O)[C@@]1(C)[C@H](C)C[C@H]2[C@@H]3CCC4=CC(=O)C=C[C@]4(C)[C@H]3[C@@H](O)C[C@@]21C` [Org 6216, 11β-hydroxy-16α,17α,21-trimethyl-▲¹ʼ⁴-pregnadiene-3,20-dione], in series [1], the “increase of the solubility (factor)” value is 10.000. The solubility in series [1] (water with 2,6-dimethyl-β-cyclodextrin, in water with 2,6-dimethyl-β-cyclodextrin, room temperature, read-out: Solubility) is 9000 µg/mL (≈ 24300 µM); in series [1] (water with α-cyclodextrin, in water with α-cyclodextrin, room temperature, read-out: Solubility), 40 µg/mL (≈ 108 µM); in series [1] (water with β-cyclodextrin, in water with β-cylodextrin, room temperature, read-out: Solubility), 50 µg/mL (≈ 135 µM); in series [1] (water with τ-cyclodextrin, in water with τ-cyclodextrin, room temperature, read-out: Solubility), 70 µg/mL (≈ 189 µM); in series [1] (water, 2,6-dimethyl-beta-cyclodextrin, 2,6-dimethyl-β-cyclodextrin as solubilizing agent, about 0,28 millimol per ml, read-out: maximal solubility of the Steroid in water), 9000 to 10000 µg/mL (≈ 24300 to 27000 µM); in series [1] (water, 2,6-dimethyl-beta-cyclodextrin, inclusion complex with 2,6-dimethyl-β-cyclodextrin, read-out: solubility of the Steroid in water), approximately 10000 µg/mL (≈ 27000 µM). Besides, the solubility in series [1] (water, no cyclodextrin, read-out: Solubility without cyclodextrin) was 0.7 µg/mL (≈ 1.89 µM); in series [1] (water, no cyclodextrin, read-out: original solubility in water), 0.5 µg/mL (≈ 1.35 µM). Moreover, the systemic effect entry in series [2] is recorded as “did not expose any significant systemic effect”. In addition, in series [3], the “increase of the intra ocular pressure (I.O.P.)” value is reported as “did not increase I.O.P”.
